Results on eleven molecules are retold here after patent publication US20240262819A1, “NOVEL COMPOUNDS HAVING INHIBITORY ACTIVITY AGAINST GLUCOSYLCERAMIDE SYNTHASE OR PHARMACEUTICALLY ACCEPTABLE SALT THEREOF, PROCESSES FOR PREPARING THE SAME, AND PHARMACEUTICAL COMPOSITIONS COMPRISING THE SAME” (YUHAN CORPORATION, priority 2021, published 2024).

Assay [1] has as its target glucosylceramide synthase (GCS) (Homo sapiens (Human), UniProt Q16739). Nature of the assay: Evaluation of inhibitory activities against GCS (A549 cell lysate, NBD C6-ceramide, HPLC). Type of assay: biochemical. An outline of the steps: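 GCS activity in A549 cell lysate (50 mM HEPES, pH 7.3) with NBD C6-ceramide, reacted 90 min at 37 °C. Lipids were chloroform/methanol-extracted and separated by normal-phase HPLC with fluorescence detection (ex 470/em 530 nm). GlcCer fraction of peak area was normalized between DMSO and ibiglustat, and IC50 obtained by curve fitting.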

The subject of assay [2] is GM1 production in Jurkat cells. In words: cells. It is filed as cell-based. The conditions noted are these: Homo sapiens, Jurkat, 72 h.

pIC50: −log10 of the molar value.

Sequence of glucosylceramide synthase (GCS) (Q16739 whole entry): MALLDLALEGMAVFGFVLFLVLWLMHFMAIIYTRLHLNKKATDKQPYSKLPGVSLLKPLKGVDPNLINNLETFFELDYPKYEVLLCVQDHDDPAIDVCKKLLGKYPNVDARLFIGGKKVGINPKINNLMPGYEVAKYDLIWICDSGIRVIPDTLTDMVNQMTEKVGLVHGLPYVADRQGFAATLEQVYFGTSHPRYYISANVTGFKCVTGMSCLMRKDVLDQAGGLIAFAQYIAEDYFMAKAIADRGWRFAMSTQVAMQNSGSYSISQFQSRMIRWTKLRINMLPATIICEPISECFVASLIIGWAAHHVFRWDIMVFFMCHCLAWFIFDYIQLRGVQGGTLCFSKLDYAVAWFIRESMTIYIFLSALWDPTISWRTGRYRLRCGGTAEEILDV

As to `CCCc1cccc(-c2cc3c(cc2F)[C@H](NC(=O)O[C@@H]2CN4CCC2CC4)C(C)(C)CC3)c1` [Example 188, (S)-quinuclidin-3-yl((R)-7-fluoro-2,2-dimethyl-6-(3-propylphenyl)-1,2,3,4-tetrahydronaphthalen-1-yl)carbamate], the negative logarithm of the IC50 (pIC50) in assay [1] is 9.08; in assay [2], 8.57.
`Cc1cc(-c2ccc3c(c2)CC(C)(C)[C@H]3NC(=O)O[C@@H]2CN3CCC2CC3)ccc1OC(F)F` [Example 48, (S)-quinuclidin-3-yl((R)-5-(4-(difluoromethoxy)-3-methylphenyl)-2,2-dimethyl-2,3-dihydro-1H-inden-1-yl)carbamate]: the pIC50 in assay [1] is 8.89; in assay [2], 7.86.
Taken in the same sequence, the figures for `CC(C)Oc1cc(F)cc(-c2cc3c(cc2F)[C@H](NC(=O)O[C@@H]2CN4CCC2CC4)C(C)(C)C3)c1` [Example 108, (S)-quinuclidin-3-yl((R)-6-fluoro-5-(3-fluoro-5-isopropoxyphenyl)-2,2-dimethyl-2,3-dihydro-1H-inden-1-yl)carbamate] were 8.97 and 7.50.
For `CC(C)Oc1c(Cl)cc(-c2cc3c(cc2F)[C@H](NC(=O)O[C@@H]2CN4CCC2CC4)C(C)(C)C3)cc1Cl` [Example 100, (S)-quinuclidin-3-yl((R)-5-(3,5-dichloro-4-isopropoxyphenyl)-6-fluoro-2,2-dimethyl-2,3-dihydro-1H-inden-1-yl)carbamate] the same measures were 8.34 and 7.79.
`CCCOc1ccc(-c2cc3c(cc2F)[C@H](NC(=O)O[C@@H]2CN4CCC2CC4)C(C)(C)C3)cc1F` [Example 91, (S)-quinuclidin-3-yl((R)-6-fluoro-5-(3-fluoro-4-propoxyphenyl)-2,2-dimethyl-2,3-dihydro-1H-inden-1-yl)carbamate]: the pIC50 is 9.48 in assay [1] and 7.97 in assay [2].
Consider `CCOc1cc2c(cc1-c1ccc(OC)cc1F)CC(C)(C)[C@H]2NC(=O)O[C@@H]1CN2CCC1CC2` [Example 138, (S)-quinuclidin-3-yl((R)-6-ethoxy-5-(2-fluoro-4-methoxyphenyl)-2,2-dimethyl-2,3-dihydro-1H-inden-1-yl)carbamate], for which the pIC50 in assay [1] is 8.73; in assay [2] it was 7.55.
For `CCCCOc1ccc(-c2cc3c(cc2C)[C@H](NC(=O)O[C@@H]2CN4CCC2CC4)C(C)(C)C3)cc1` [Example 123, (S)-quinuclidin-3-yl((R)-5-(4-butoxyphenyl)-2,2,6-trimethyl-2,3-dihydro-1H-inden-1-yl)carbamate], the pIC50 is 9.62 in assay [1] and 8.90 in assay [2].
Taken in the same sequence, the figures for `CCCCOc1ccc(-c2ccc3c(c2)CCC(C)(C)[C@H]3NC(=O)O[C@@H]2CN3CCC2CC3)cc1` [Example 145, (S)-quinuclidin-3-yl((R)-6-(4-butoxyphenyl)-2,2-dimethyl-1,2,3,4-tetrahydronaphthalen-1-yl)carbamate] were 9.54 and 9.52.
Taken in the same sequence, the figures for `CCOc1cccc(-c2cc3c(cc2F)[C@H](NC(=O)O[C@@H]2CN4CCC2CC4)C(C)(C)CC3)c1` [Example 185, (S)-quinuclidin-3-yl((R)-6-(3-ethoxyphenyl)-7-fluoro-2,2-dimethyl-1,2,3,4-tetrahydronaphthalen-1-yl)carbamate] were 9.52 and 8.44.
For `CC(C)COc1ccc(-c2cc3c(cc2F)[C@H](NC(=O)O[C@@H]2CN4CCC2CC4)C(C)(C)CC3)cc1` [Example 179, (S)-quinuclidin-3-yl((R)-7-fluoro-6-(4-isobutoxyphenyl)-2,2-dimethyl-1,2,3,4-tetrahydronaphthalen-1-yl)carbamate], the negative logarithm of the IC50 (pIC50) in assay [1] is 9.72; in assay [2] it was 9.66.
As for `COc1cccc(-c2ccc3c(c2)CCC(C)(C)[C@H]3NC(=O)O[C@@H]2CN3CCC2CC3)c1` [Example 153, (S)-quinuclidin-3-yl((R)-6-(3-methoxyphenyl)-2,2-dimethyl-1,2,3,4-tetrahydronaphthalen-1-yl)carbamate], the pIC50 in assay [1] is 9.49; in assay [2], 8.68.

As usually defined, the pIC50 is the IC50 on a negative log10 scale, so that one unit is a factor of ten. A lower pIC50 goes with a high IC50.
